Assay results taken from US10526345B2, “Compounds as GPR119 agonists” (Mankind Pharma Ltd., priority 2016, dated 2020).
pEC50: −log10 of the molar value.

Target: T1, hGPR119 (Homo sapiens, UniProt Q8TDV5)
T1 construct: expressed in transfected cells; host or cells: CHO
T1 sequence (Q8TDV5 1-335): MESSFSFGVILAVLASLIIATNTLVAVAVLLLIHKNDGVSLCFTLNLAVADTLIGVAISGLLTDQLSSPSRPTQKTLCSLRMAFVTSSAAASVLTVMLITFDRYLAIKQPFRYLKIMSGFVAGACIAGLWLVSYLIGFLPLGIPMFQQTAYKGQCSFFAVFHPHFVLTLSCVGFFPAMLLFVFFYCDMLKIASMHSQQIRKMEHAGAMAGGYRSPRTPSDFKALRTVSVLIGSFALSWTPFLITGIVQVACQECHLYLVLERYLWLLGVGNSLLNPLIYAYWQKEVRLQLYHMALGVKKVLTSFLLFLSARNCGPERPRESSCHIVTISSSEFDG
Test: In vitro cyclic AMP assay (Cisbio dynamic 2 HTRF kit) in CHO-hGPR119 cells
Format: cell-based
Settings: 1 h, cAMP, compound at 1 μM, 60 min, read-out: Induction (% induction at 1 μM)

Row | Structure (SMILES) | activation at 1 µM [%]
1 | CC(C)c1nnc(N2CCC(C(C)Oc3nc4ccc(-c5ccc(S(C)(=O)=O)cc5)nc4s3)CC2)o1 (stereo not shown) [Compound 1097, 2-isopropyl-5-(4-(1-((5-(4-(methylsulfonyl)phenyl)thiazolo[5,4-b]pyridin-2-yl)oxy)ethyl)piperidin-1-yl)-1,3,4-oxadiazole] | 34
2 | CC(C)c1noc(N2CCC(C(C)Oc3nc4ccc(-c5cc[n+]([O-])cc5)nc4s3)CC2)n1 (stereo not shown) [Compound 1098, 4-(2-(1-(1-(3-isopropyl-1,2,4-oxadiazol-5-yl)piperidin-4-yl)ethoxy)thiazolo[5,4-b]pyridin-5-yl)pyridine 1-oxide] | 48
3 | CC(C)c1noc(N2CCC(C(C)Oc3nc4ccc(-c5ccc(S(C)(=O)=O)c(F)c5)nc4s3)CC2)n1 (stereo not shown) [Compound 1100, 5-(4-(1-((5-(3-fluoro-4-(methylsulfonyl)phenyl)thiazolo[5,4-b]pyridin-2-yl)oxy)ethyl)piperidin-1-yl)-3-isopropyl-1,2,4-oxadiazole] | 65
4 | CC(C)c1noc(N2CCC(C(Oc3nc4ccc(-c5ccc(S(C)(=O)=O)nc5)nc4s3)C(F)(F)F)CC2)n1 (stereo not shown) [Compound 1102, 3-isopropyl-5-(4-(2,2,2-trifluoro-1-((5-(6-(methylsulfonyl)pyridin-3-yl)thiazolo[5,4-b]pyridin-2-yl)oxy)ethyl)piperidin-1-yl)-1,2,4-oxadiazole] | 72
5 | CC(C)c1noc(N2CCC(C(Oc3nc4ccc(-c5ccnc(F)c5)nc4s3)C(F)(F)F)CC2)n1 (stereo not shown) [Compound 1103, 3-isopropyl-5-(4-(2,2,2-trifluoro-1-((5-(2-fluoropyridin-4-yl)thiazolo[5,4-b]pyridin-2-yl)oxy)ethyl)piperidin-1-yl)-1,2,4-oxadiazole] | 63
6 | CC(C)c1noc(C2CCC(C(C)Oc3nc4ccc(-c5ccc(S(C)(=O)=O)cc5)nc4s3)CC2)n1 (stereo not shown) [Compound 1105, 3-isopropyl-5-(4-(1-((5-(4-(methylsulfonyl)phenyl)thiazolo[5,4-b]pyridin-2-yl)oxy)ethyl)cyclohexyl)-1,2,4-oxadiazole] | 13
7 | CC(C)c1nsc(N2CCC(C(C)Oc3nc4ccc(-c5ccc(S(C)(=O)=O)cc5)nc4s3)CC2)n1 (stereo not shown) [Compound 1107, 2-(1-(1-(3-isopropyl-1,2,4-thiadiazol-5-yl)piperidin-4-yl)ethoxy)-5-(4-(methylsulfonyl)phenyl)thiazolo[5,4-b]pyridine] | 12
8 | CC(C)c1noc(N2CCC(C(C)Oc3nc4ncc(-c5ccc(S(C)(=O)=O)cc5)nc4s3)CC2)n1 (stereo not shown) [Compound 1108, 3-isopropyl-5-(4-(1-((6-(4-(methylsulfonyl)phenyl)thiazolo[4,5-b]pyrazin-2-yl)oxy)ethyl)piperidin-1-yl)-1,2,4-oxadiazole] | 65
9 | CC(Oc1nc2ccc(-c3ccc(S(C)(=O)=O)cc3)nc2s1)C1CCN(S(=O)(=O)C2CC2)CC1 (stereo not shown) [Compound 1109, 2-(1-(1-(cyclopropylsulfonyl)piperidin-4-yl)ethoxy)-5-(4-(methylsulfonyl)phenyl)thiazolo[5,4-b]pyridine] | 0
10 | CCCc1cnc(N2CCC(C(C)Oc3nc4ncc(-c5ccc(S(C)(=O)=O)cc5)nc4s3)CC2)nc1 (stereo not shown) [Compound 1110, 6-(4-(methylsulfonyl)phenyl)-2-(1-(1-(5-propylpyrimidin-2-yl)piperidin-4-yl)ethoxy)thiazolo[4,5-b]pyrazine] | 78
11 | CC(C)c1noc(N2CCC(C(C)Oc3nc4ccc(-c5ccc(S(C)(=O)=O)cc5F)nc4s3)CC2)n1 (stereo not shown) [Compound 1111, 5-(4-(1-((5-(2-fluoro-4-(methylsulfonyl)phenyl)thiazolo[5,4-b]pyridin-2-yl)oxy)ethyl)piperidin-1-yl)-3-isopropyl-1,2,4-oxadiazole] | 24
12 | CC(C)c1cnc(N2CCC(C(C)Oc3nc4ccc(-c5ccc(S(C)(=O)=O)cc5)nc4s3)CC2)nc1 (stereo not shown) [Compound 1113, 2-(1-(1-(5-isopropylpyrimidin-2-yl)piperidin-4-yl)ethoxy)-5-(4-(methylsulfonyl)phenyl)thiazolo[5,4-b]pyridine] | 57
13 | CC(C)c1noc(N2CCC([C@H](C)Oc3nc4ncc(-c5ccc(S(C)(=O)=O)nc5)nc4s3)CC2)n1 [Compound 1114, (S)-3-isopropyl-5-(4-(1-((6-(6-(methyslulfonyl)pyridin-3-yl)thiazolo[4,5-b]pyrazin-2-yl)oxy)ethyl)piperidin-1-yl)-1,2,4-oxadiazole] | 75
14 | CCCS(=O)(=O)N1CCC(C(C)Oc2nc3ccc(-c4ccc(S(C)(=O)=O)cc4)nc3s2)CC1 (stereo not shown) [Compound 1115, 5-(4-(methylsulfonyl)phenyl)-2-(1-(1-(propylsulfonyl)piperidin-4-yl)ethoxy)thiazolo[5,4-b]pyridine] | 12
15 | CC(C)c1noc(N2CCC(C(C)Oc3nc4ccc(-c5cnc(Cl)nc5)nc4s3)CC2)n1 (stereo not shown) [Compound 1116, 5-(4-(1-((5-(2-chloropyrimidin-5-yl)thiazolo[5,4-b]pyridin-2-yl)oxy)ethyl)piperidin-1-yl)-3-isopropyl-1,2,4-oxadiazole] | 61
16 | CC(Oc1nc2ccc(-c3ccc(S(C)(=O)=O)cc3)nc2s1)C1CCN(C(=O)OC2(C)CC2)CC1 (stereo not shown) [Compound 1117, 1-methylcyclopropyl 4-(1-((5-(4-(methylsulfonyl)phenyl)thiazolo[5,4-b]pyridin-2-yl)oxy)ethyl)piperidine-1-carboxylate] | 2
17 | C=C(C)c1cnc(N2CCC(C(C)Oc3nc4ccc(-c5ccc(S(C)(=O)=O)cc5)nc4s3)CC2)nc1 (stereo not shown) [Compound 1118, 5-(4-(methylsulfonyl)phenyl)-2-(1-(1-(5-(prop-1-en-2-yl)pyrimidin-2-yl)piperidin-4-yl)ethoxy)thiazolo[5,4-b]pyridine] | 47
18 | CC(C)c1noc(N2CCC(C(C)Oc3nc4ccc(-c5cncs5)nc4s3)CC2)n1 (stereo not shown) [Compound 1121, 3-isopropyl-5-(4-(1-((5-(thiazol-5-yl)thiazolo[5,4-b]pyridin-2-yl)oxy)ethyl)piperidin-1-yl)-1,2,4-oxadiazole] | 30
19 | CC(C)c1noc(N2CCC(C(C)Oc3nc4ccc(-c5cnoc5)nc4s3)CC2)n1 (stereo not shown) [Compound 1122, 3-isopropyl-5-(4-(1-((5-(isoxazol-4-yl)thiazolo[5,4-b]pyridin-2-yl)oxy)ethyl)piperidin-1-yl)-1,2,4-oxadiazole] | 30
20 | Cc1cc(-c2ccc3nc(OC(C)C4CCN(c5nc(C(C)C)no5)CC4)sc3n2)ccn1 (stereo not shown) [Compound 1123, 3-isopropyl-5-(4-(1-((5-(2-methylpyridin-4-yl)thiazolo[5,4-b]pyridin-2-yl)oxy)ethyl)piperidin-1-yl)-1,2,4-oxadiazole] | 50
21 | CC(C)c1noc(N2CCC(C(C)Oc3nc4ccc(-c5cnsc5)nc4s3)CC2)n1 (stereo not shown) [Compound 1124, 2-(1-(1-(3-isopropyl-1,2,4-oxadiazol-5-yl)piperidin-4-yl)ethoxy)-5-(isothiazol-4-yl)thiazolo[5,4-b]pyridine] | 30
22 | Cc1nscc1-c1ccc2nc(OC(C)C3CCN(c4nc(C(C)C)no4)CC3)sc2n1 (stereo not shown) [Compound 1125, 3-isopropyl-5-(4-(1-((5-(3-methylisothiazol-4-yl)thiazolo[5,4-b]pyridin-2-yl)oxy)ethyl)piperidin-1-yl)-1,2,4-oxadiazole] | 38
23 | CC(C)c1noc(N2CCC(C(C)Oc3nc4ccc(-c5cc[nH]c(=O)c5)nc4s3)CC2)n1 (stereo not shown) [Compound 1126, 4-(2-(1-(1-(3-isopropyl-1,2,4-oxadiazol-5-yl)piperidin-4-yl)ethoxy)thiazolo[5,4-b]pyridin-5-yl)pyridin-2(1H)-one] | 42
24 | CC(C)c1noc(N2CCC(C(C)Oc3nc4ccc(-c5ccn(C)c(=O)c5)nc4s3)CC2)n1 (stereo not shown) [Compound 1127, 4-(2-(1-(1-(3-isopropyl-1,2,4-oxadiazol-5-yl)piperidin-4-yl)ethoxy)thiazolo[5,4-b]pyridin-5-yl)-1-methylpyridin-2(1H)-one] | 50
25 | CC(C)c1noc(N2CC[C@@H](COc3nc4ccc(-c5ccc(S(C)(=O)=O)cc5)nc4s3)[C@@H](F)C2)n1 [Compound 1128, 5-((3R,4S)-3-fluoro-4-(((5-(4-(methylsulfonyl)phenyl)thiazolo[5,4-b]pyridin-2-yl)oxy)methyl)piperidin-1-yl)-3-isopropyl-1,2,4-oxadiazole] | 10
26 | CC(C)c1noc(N2CC[C@@H](COc3nc4ccc(-c5ccc(S(C)(=O)=O)cc5)nc4s3)[C@H](F)C2)n1 [Compound 1129, 5-((3S,4S)-3-fluoro-4-(((5-(4-(methylsulfonyl)phenyl)thiazolo[5,4-b]pyridin-2-yl)oxy)methyl)piperidin-1-yl)-3-isopropyl-1,2,4-oxadiazole] | 5
27 | CC(C)c1noc(N2CCC(OC(C)c3nc4ccc(-c5ccc(S(C)(=O)=O)cc5)nc4s3)CC2)n1 (stereo not shown) [Compound 1130, 3-isopropyl-5-(4-(1-(5-(4-(methylsulfonyl)phenyl)thiazolo[5,4-b]pyridin-2-yl)ethoxy)piperidin-1-yl)-1,2,4-oxadiazole] | 5
28 | CC(Oc1nc2ccc(-c3ccc(S(C)(=O)=O)cc3)nc2s1)C1CCN(c2nc(C(F)(F)F)no2)CC1 (stereo not shown) [Compound 1131, 5-(4-(1-((5-(4-(methylsulfonyl)phenyl)thiazolo[5,4-b]pyridin-2-yl)oxy)ethyl)piperidin-1-yl)-3-(trifluoromethyl)-1,2,4-oxadiazole] | 40

Same assay, conditions: cAMP

Row | Structure (SMILES) | pEC50
29 | CC(C)c1noc(N2CCC([C@H](C)Oc3nc4ccc(-c5ccncc5F)nc4s3)CC2)n1 [Compound 1096, (S)-5-(4-(1-((5-(3-fluoropyridin-4-yl)thiazolo[5,4-b]pyridin-2-yl)oxy)ethyl)piperidin-1-yl)-3-isopropyl-1,2,4-oxadiazole] | 7.00 to 7.30
30 | CC(C)c1noc(N2CCC([C@H](C)Oc3nc4ncc(-c5ccc(S(C)(=O)=O)nc5)nc4s3)CC2)n1 [Compound 1114, (S)-3-isopropyl-5-(4-(1-((6-(6-(methyslulfonyl)pyridin-3-yl)thiazolo[4,5-b]pyrazin-2-yl)oxy)ethyl)piperidin-1-yl)-1,2,4-oxadiazole] | 7.00 to 7.30

Same assay, conditions: cAMP, compound at 1 μM, 60 min

Row | Structure (SMILES) | Induction (% induction at 1 μM) [%]
31 | CC(C)c1noc(N2CCC([C@H](C)Oc3nc4ccc(-c5ccncc5F)nc4s3)CC2)n1 [Compound 1096, (S)-5-(4-(1-((5-(3-fluoropyridin-4-yl)thiazolo[5,4-b]pyridin-2-yl)oxy)ethyl)piperidin-1-yl)-3-isopropyl-1,2,4-oxadiazole] | 66
